From US7910591B2, “Piperazine derivatives of alkyl oxindoles” (EGIS Gyogyszergyar NYRT., priority 2004, dated 2011)
Where a name gives a salt, the structure may show the parent alone.

What was measured:
5-HT7 receptor = molecular target: T1, 5-HT7 receptor (Homo sapiens, UniProt P34969); assay: 5-HT7 receptor binding; conditions: human cloned receptors; ligand 3H-lizergic acid diethylamide (LSD) 1.0 nM; non-specific binding clozapine 25 μM
T1 construct: expressed in transfected cells
Procedure: (§1) For the determination of 5-HT7 receptor affinity human cloned receptors were used. The α1 receptor affinities were determined from isolated frontal cortex preparation of male Wistar rats weighing 120-200 g. The protein contents of membrane preparations were determined by the method of Lowry (1951).
(§2) In the course of 5-HT7 and α1 receptor binding studies the ligands were ^3H-lizergic acid diethylamide (LSD) (1.0 nM) and ^3H-prazosine (0.3 nM). Clozapine (25 μM) and prazosine (1 μM) were used for the measurement of non-specific bindings. The α1 receptor binding studies were carried out according to the methods of Reader, and Greengrass (Reader, T. A., Briere, R., Grondin, L.: J. Neural Transm. 68, p. 79 (1987); Greengrass, P., Brenner, R.: Eur. J. Pharmacol. 55, p. 323 (1979)).
(§3) IC50 is the concentration where the difference between the whole binding and non-specific binding is 50%. The compounds with an IC50 value smaller than […] were considered effective in this test.

α1 receptor = α1 receptor binding; design: species or system rat; conditions: isolated frontal cortex preparation of male Wistar rats; ligand 3H-prazosine 0.3 nM; non-specific binding prazosine 1 μM
Procedure: as §1, §2, §3

T1 sequence (P34969 whole entry): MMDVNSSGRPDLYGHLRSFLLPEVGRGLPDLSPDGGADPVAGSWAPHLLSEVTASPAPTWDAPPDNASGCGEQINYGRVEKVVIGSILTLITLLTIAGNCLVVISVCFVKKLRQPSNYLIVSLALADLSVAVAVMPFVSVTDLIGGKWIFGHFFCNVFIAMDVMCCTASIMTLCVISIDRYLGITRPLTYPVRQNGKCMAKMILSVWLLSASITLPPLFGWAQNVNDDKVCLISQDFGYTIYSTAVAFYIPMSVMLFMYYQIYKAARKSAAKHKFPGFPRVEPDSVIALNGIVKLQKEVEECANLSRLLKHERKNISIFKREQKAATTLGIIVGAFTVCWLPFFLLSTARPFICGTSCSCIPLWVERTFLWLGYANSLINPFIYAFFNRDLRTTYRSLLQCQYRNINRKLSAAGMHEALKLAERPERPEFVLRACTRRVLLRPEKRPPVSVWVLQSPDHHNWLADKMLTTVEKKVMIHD

| SMILES | melting point [°C] | IC50 (5-HT7 receptor) [nM] | IC50 (α1 receptor) [nM] |
| --- | --- | --- | --- |
| COc1cccc(N2CCN(CCCCC3C(=O)Nc4ccccc43)CC2)c1 (stereo not shown) (as salt: oxalate) [Example 9, 3-{4-[4-(3-Methoxyphenyl)-piperazine-1-yl]-butyl}-1,3-dihydro-2H-indol-2-one Monooxalate] | 208 to 211 |  |  |
| O=C1Nc2cc(F)ccc2C1CCCCN1CCN(c2ccccn2)CC1 (stereo not shown) [Example 8, 6-Fluoro-3-[4-(4-pyridin-2-yl-piperazine-1-yl)-butyl]-1,3-dihydro-2H-indol-2-one] | 136 to 137 | < 100 | < 100 |
| O=C1Nc2ccc(F)cc2C1CCCCN1CCN(c2ccccn2)CC1 (stereo not shown) [Example 7, 5-Fluoro-3-[4-(4-pyridin-2-yl-piperazine-1-yl)-butyl]-1,3-dihydro-2H-indol-2-one] | 132 to 134 |  |  |
| COc1ccc(Cl)cc1N1CCN(CCCCC2C(=O)Nc3ccccc32)CC1 (stereo not shown) (as salt: hydrochloride) [Example 11, 3-{4-[4-(5-Chloro-2-methoxyphenyl)-piperazine-1-yl]-butyl}-1,3-dihydro-2H-indol-2-one Monohydrochloride] | 91 to 94 |  |  |
| O=C1Nc2ccc(F)cc2C1CCCCN1CCN(c2cc(Cl)cc3c2OCCO3)CC1 (stereo not shown) [Example 10, 3-{4-[4(7-Chloro-2,3-dihydrobenzo[1,4]dioxin-5-yl)piperazine-1-yl]-butyl}-5-fluoro-1,3-dihydro-2H-indol-2-one] | 146 to 148 | < 100 | < 50 |
| COc1cccc(N2CCN(CCCCC3C(=O)Nc4ccc(F)cc43)CC2)c1 (stereo not shown) [Example 12, 5-Fluoro-3-{4-[4-3-methoxyphenyl)-piperazine-1-yl]-butyl}-1,3-dihydro-2H-indol-2-one Monooxalate] |  | < 100 | < 100 |

Next, values leading:

| melting point [°C] | IC50 (5-HT7 receptor) [nM] | IC50 (α1 receptor) [nM] | SMILES |
| --- | --- | --- | --- |
|  | < 100 |  | COc1cccc(N2CCN(CCCCC3C(=O)Nc4ccccc43)CC2)c1 (stereo not shown) [Example 9, 3-{4-[4-(3-Methoxyphenyl)-piperazine-1-yl]-butyl}-1,3-dihydro-2H-indol-2-one Monooxalate] |
|  | < 100 |  | O=C1Nc2ccccc2C1CCCCN1CCN(c2cc(Cl)cc3c2OCCO3)CC1 (stereo not shown) [Example 6, 3-{4-[4-(7-Chloro-2,3-dihydrobenzo[1,4]dioxin-5-yl)-piperazine-1-yl]-butyl}-1,3-dihydro-2H-indol-2-one Monooxalate] |
| 211 to 214 |  |  | COc1cccc(N2CCN(CCCCC3C(=O)Nc4ccc(F)cc43)CC2)c1 (stereo not shown) (as salt: oxalate) [Example 12, 5-Fluoro-3-{4-[4-3-methoxyphenyl)-piperazine-1-yl]-butyl}-1,3-dihydro-2H-indol-2-one Monooxalate] |
| 131 to 132 | < 100 | < 100 | O=C1Nc2ccccc2C1CCCCN1CCN(c2ccccn2)CC1 (stereo not shown) [Example 5, 3-[4-(4-Pyridin-2-yl-piperazine-1-yl)-butyl]-1,3-dihydro-2H-indol-2-one] |
| 236 to 238 |  |  | O=C1Nc2ccccc2C1CCCCN1CCN(c2cc(Cl)cc3c2OCCO3)CC1 (stereo not shown) (as salt: oxalate) [Example 6, 3-{4-[4-(7-Chloro-2,3-dihydrobenzo[1,4]dioxin-5-yl)-piperazine-1-yl]-butyl}-1,3-dihydro-2H-indol-2-one Monooxalate] |
|  | < 100 |  | COc1ccc(Cl)cc1N1CCN(CCCCC2C(=O)Nc3ccccc32)CC1 (stereo not shown) [Example 11, 3-{4-[4-(5-Chloro-2-methoxyphenyl)-piperazine-1-yl]-butyl}-1,3-dihydro-2H-indol-2-one Monohydrochloride] |
